Counter-ions that a name gives are not always drawn.
Columns and labels:
[1] = Pharmacokinetic study (oral, cannulated rats, LC/MS of plasma); type: in vivo, rat
Description: Adult male Wistar rats weighing 278-290 g (Jinvier, France) were used in the study. Animals were housed in a temperature-controlled room (20-24° C.) and maintained in a 12 h light/12 h dark cycle. Food and water were available ad libitum.
For surgery, rats were anaesthetised with a ketamine (90 mg/kg)/xylazine (10 mg/kg) mixture, and cannulated with silicone tubing via the right jugular vein. Prior to the first blood sampling, animals were connected to a counterbalanced system and tubing to perform blood sampling in the freely moving rat.
Separate stock solutions (5 mg/ml) of compound 52 of the invention and prior art substance WO 2006/005484—substance 76 were prepared in Solutol HS 15/PEG300 (3:1). The whole process was performed under constant stirring. Half of the volume of the vehicle was added first. After sonication (5 minutes), the second half of the vehicle was added and the vials were again sonicated. All the solutions were clear and free of particles or agglomerates.
Immediately before application, the dosing mixture was prepared by adding equal volumes of the stock solutions to end up with a final concentration of 1 mg/ml for each compound. The mixture was applied orally to rats with an application volume of 5 ml/kg.
Blood samples (200 μl) were taken 1 hour before application and 1, 2, 4, 6, 8, 12 and 24 hours after. They were centrifuged at 650 g for 10 minutes at 4° C. and then the plasma was harvested and kept at −20° C. until LC/MS analysis.

[2] = Metabolic stability testing in liver microsomes; type: in vitro ADME; conditions: mixed-gender human liver microsomes, 1 mg microsomal protein/mL, initial concentration 10 μM, 60 minutes at 37° C.; WO 2006/005484-substance 7 = 100%
Description: Subcellular fractions of different tissues can be prepared easily by ultracentrifugation. Most commonly these are prepared from the liver of animals and human donors to gain information about the potential hepatic clearance of compounds (first-pass elimination of drugs). Human or animal (e.g. dog, mouse, rat) subcellular fraction like liver microsomes, or possibly the fraction called S9 have therefore become a very commonly and widely used as an in vitro model to investigate mainly cytochrome P450 dependent phase I (but also phase II) metabolism that takes place in the liver.
In order to reflect the standard proportion of the enzymes in human and animal livers, liver microsomes are usually pooled from a number of […] of the same sex (or mixed-gender). By supplementing the liver microsomes with relevant cofactors and other components it is possible to investigate and distinguish between CYPs, flavin-containing monooxygenase (FMO) and UDP-glucuronosyltransferase (UGT) activities.
Selected compounds of the invention were tested for their stability in mixed-gender human liver microsomes and compared to pertinent prior art compounds.
Under the test conditions applied (1 mg microsomal protein/mL, initial concentration of 10 μM, and incubation for 60 minutes at 37° C.) the following normalized results were obtained.

[3] = target: T1, LHRH receptor (endogenous GnRH receptor of alpha T3-1 cell line) (Mus musculus, UniProt Q01776); experiment: LHRH-receptor binding assay (displacement of [125I] cetrorelix on alpha T3-1 cells); conditions: WO 2006/005484-substance 75 = 100%
T1 construct: alpha T3-1 cell line with endogenous GnRH receptor expression; endogenous in cells; host or cells: alpha T3-1 cells (intact cell suspension)
T1 sequence (Q01776 1-327): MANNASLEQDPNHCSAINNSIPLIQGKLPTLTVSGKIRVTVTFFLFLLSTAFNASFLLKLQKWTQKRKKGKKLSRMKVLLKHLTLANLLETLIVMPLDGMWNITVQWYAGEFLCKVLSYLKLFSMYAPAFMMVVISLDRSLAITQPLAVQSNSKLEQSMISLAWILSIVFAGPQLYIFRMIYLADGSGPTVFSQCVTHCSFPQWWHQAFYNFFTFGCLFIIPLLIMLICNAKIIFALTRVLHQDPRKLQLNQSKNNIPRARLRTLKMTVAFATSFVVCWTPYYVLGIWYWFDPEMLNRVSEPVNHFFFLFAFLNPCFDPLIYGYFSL
Description: For LHRH receptor binding studies, an assay system using alpha T3-1 cell line with endogenous GnRH receptor expression was employed (Windle et al., Mol. Endocrinol. 1990, 4(4): 597-603).
Iodinated cetrorelix was used as a tracer with about 80% of peptide capable of specific receptor association.
For displacement binding assays, the cells were incubated with approximately 200 pM [^125l] cetrorelix and different concentrations of unlabeled test compounds as competitor. The cell suspension in binding medium was layered on top of silicon/paraffin oil, incubated for 60 min at 37° C. and separated by centrifugation. The tips of the tubes containing the cell pellet were cut off, subsequently cell pellet and supernatant were analyzed by gamma-radiation analysis.
The amount of unspecific binding was determined by including unlabeled cetrorelix at 1 μM final concentration and was typically ≦10% of total binding. IC50 values were calculated by using the GraphPad Prism analysis program (GraphPad Software Inc.).

plasma testosterone = experiment: Testosterone suppression experiment (plasma testosterone ELISA); type: in vivo, rat; conditions: male Wistar rats, po in Solutol HS15/PEG300 (3:1), samples up to 24 h post-dose
Description: Male Wistar rats weighing 248-296 g (Janvier, France) were used in the present study. Animals were housed in a temperature-controlled room (20-22° C.) and maintained in a 12 h light/12 h dark cycle. Food and water were available ad libitum.
Rats were anaesthetised with a ketamine (135 mg/kg)/xylazine (10 mg/kg) mixture, and cannulated with silicone tubing via the right jugular vein. Prior to the first blood sampling, animals were connected to a counterbalanced system and tubing, to perform blood sampling in the freely moving rat.
The dosing solutions were prepared immediately before application. […]
The concentrations of testosterone in the rat plasma samples were determined using the Testosterone ELISA (EIA-1559) from DRG Instruments according to the manufacturer's instructions. […] The plate was read within the next 30 min with a Spectramax Plus (Molecular Devices) at 450 nm. The concentration of testosterone in the samples was calculated from the standard curve and is inversely proportional to the optical density measured.
Due to the pulsatile release of testosterone in intact rats, two pre-treatment samples ere collected to establish baseline values prior the administration of the compound. […] The pre-treatment mean value was compared to the testosterone levels measured after application.

[4] = rat, plasma, male Wistar rats, oral, 5 mg/kg, mixture of both compounds in Solutol HS 15/PEG300 (3:1)

Row | Structure (SMILES) | AUC(0-t) [1, 4] | Cmax [1, 4] | Tmax [1, 4] | higher AUC compared to the pertinent prior art substance (indicative for bioavailability) ([1]; versus WO 2006/005484-substance 76, rats, oral 5 mg/kg) | Normalized microsomal stability [2] | Normalized Affinity [3] | mean plasma testosterone concentration over time (FIG. 2) (plasma testosterone)
1 | CCC(C)[C@H](NC(=O)Cc1ccccc1F)C(=O)N[C@]1(C(=O)N[C@H](C(=S)NCC2CCOCC2)C(C)CC)CCc2[nH]c3c(C(F)(F)F)cccc3c2C1 (stereo partly drawn) [Compound 52, (R)-3-{(S)-2-[2-(2-Fluoro-phenyl)-acetylamino]-3-methyl-pentanoylamino}-8-trifluoromethyl-2,3,4,9-tetrahydro-1H-carbazole-3-carboxylic acid {(S)-2-methyl-1-[(tetrahydro-pyran-4-ylmethyl)-thiocarbamoyl]-butyl}-amide] | 306 ng·h/mL | 38.2 ng/mL | 4 h | more than 300% | 178% | 218% | –
2 | CCC(C)[C@H](NC(=O)Cc1ccccc1F)C(=O)N[C@]1(C(=O)N[C@H](C(=S)NCCN2CCOCC2)C(C)CC)CCc2[nH]c3c(C(F)(F)F)cccc3c2C1 (stereo partly drawn) [compound 54 (TFA salt), (R)-3-{(S)-2-[2-(2-Fluoro-phenyl)-acetylamino]-3-methyl-pentanoylamino}-8-trifluoromethyl-2,3,4,9-tetrahydro-1H-carbazole-3-carboxylic acid [(S)-2-methyl-1-(2-morpholin-4-yl-ethylthiocarbamoyl)-butyl]-amide] | – | – | – | – | – | 247% | testosterone suppression

— US8541462B2, “Tetrahydrocarbazole derivatives as ligands of G-protein coupled receptors” (AEterna Zentaris GmbH, priority 2007, dated 2013)
